In patent US20250059232A1, “PENTAPEPTIDE AND USE THEREOF” (ENSOL BIOSCIENCES INC., priority 2021, published 2025):

What was measured:
[1] = Stability test: HPLC relative purity of peptide dissolved in buffer, by pH and temperature; format: physicochemical
Procedure: For Example 1 and Comparative Example 1, stability tests according to pH for each temperature were performed.
Stability tests for each peptide were performed by liquid chromatography purity analysis for each temperature and each pH according to analysis timing (initial, 24 hours, 130 hours). […] Samples were analyzed by injecting 20 ul of each sample with an auto-sample injector, and the analysis column was Inspire C18 (4.6×250 mm, […], 12 nm) manufactured by Dikma. The analysis temperature was 40° C., and a UV wavelength of 215 nm was used.
On the basis of the HPLC analysis results, relative purity was calculated for Comparative Example 1 and Example 1 for each storage condition. The relative purity is the percentage of measured purity changing according to the storage period, with the initial purity being set to 100% for each sample. FIGS. 1 and 2 are graphs showing the results of stability tests for Example and Comparative Example stored at a temperature of 25° C., in which FIG. 1 is a graph of a test result for 24 hours of storage, and FIG. 2 is a graph of a test result for 130 hours of storage. FIGS. 3 and 4 are graphs showing the results of stability tests for Example and Comparative Example stored at 40° C., in which FIG. 3 is a graph of a test result for 24 hours of storage, and FIG. 4 is a graph of a test result for 130 hours of storage. In each graph, the x-axis represents the test group by pH and the y-axis represents the relative purity […].

[2] = 4-week repeated subcutaneous toxicity test in rats; format: in vivo, rat
Procedure: Ten female and male rats were administered the pentapeptide of Example 1 subcutaneously at doses of 500, 1000, 2000 mg/kg daily for 4 weeks to investigate toxicity, and a safety evaluation test was performed. Specifically, general symptom observation, body weight measurement, feed consumption measurement, ophthalmological examination, and urinary examination were performed. After the end of the observation period, hematology and clinical biochemistry test, organ weight measurement, visual examination at autopsy, and histopathological examination were performed. […] Synthesizing the results described above, the no observed adverse effect level (NOEAL) for female and male was determined to be greater than or equal to 2,000 mg/kg/day when the pentapeptide of Example 1 was administered repeatedly subcutaneously to the rats for 4 weeks.

MDA-MB-231 = MDA-MB-231 xenograft in BalB/c nude mouse: survival rate; format: in vivo; details: 100 mg/kg subcutaneously 3 times weekly, co-administered with paclitaxel 20 mg/kg once weekly
Procedure: To investigate survival rates of the paclitaxel-only administration group and the group co-administered with paclitaxel and the peptide of Example 1, experiments described below were performed. 5×10^6 cells/head of the human triple negative breast cancer cell line MDA-MB-231 were mixed with Matrigel and PBS (1:1). 100 ul of the mixture was injected into the right third fat pad of 7-week-old female BalB/c nude mouse. After the transplantation, drug administration started from an average tumor size of 70 mm^3. Paclitaxel 20 mg/kg was administered once weekly, and the peptide 100 mg/kg of Example 1 was administered subcutaneously 3 times weekly at 48-hour intervals, 48 hours after the paclitaxel administration. Each test group was administered for 12 weeks and animal survival was observed daily. FIG. 10 is a graph illustrating survival rates over time after sample administration in animal experimentation. In FIG. 10, the x-axis represents the elapsed time (days) after administration and the y-axis represents survival rates (%). […] In the case of the group co-administered with the peptide of Example 1, the first deceased mouse occurred on Day 60 of administration.

[3] = 500, 1000, 2000 mg/kg subcutaneous daily for 4 weeks

What does the source list for Ac-QLHLD-OH [Example 1, acetyl-QLHLD]?
Stability (summary in words) ([1]; liquid state, pH 2-9, 25 and 40° C., up to 130 hours): extremely stable regardless of storage conditions; Relative purity ([1]; pH 2, 25 ± 2° C., RH 60 ± 5%, storage 0 hours (initial set to 100%)): 100.0%; Relative purity ([1]; pH 2, 25 ± 2° C., RH 60 ± 5%, storage 24 hours): 99.7%; Relative purity ([1]; pH 2, 25 ± 2° C., RH 60 ± 5%, storage 130 hours): 99.9%; Relative purity ([1]; pH 2, 40 ± 2° C., RH 75 ± 5%, storage 0 hours (initial set to 100%)): 100.0%; Relative purity ([1]; pH 2, 40 ± 2° C., RH 75 ± 5%, storage 24 hours): 99.4%; Relative purity ([1]; pH 2, 40 ± 2° C., RH 75 ± 5%, storage 130 hours): 95.8%; Relative purity ([1]; pH 5, 25 ± 2° C., RH 60 ± 5%, storage 0 hours (initial set to 100%)): 100.0%; Relative purity ([1]; pH 5, 25 ± 2° C., RH 60 ± 5%, storage 24 hours): 100.0%; Relative purity ([1]; pH 5, 25 ± 2° C., RH 60 ± 5%, storage 130 hours): 100.0%; Relative purity ([1]; pH 5, 40 ± 2° C., RH 75 ± 5%, storage 0 hours (initial set to 100%)): 100.0%; Relative purity ([1]; pH 5, 40 ± 2° C., RH 75 ± 5%, storage 24 hours): 100.0%; Relative purity ([1]; pH 5, 40 ± 2° C., RH 75 ± 5%, storage 130 hours): 100.0%; Relative purity ([1]; pH 7, 25 ± 2° C., RH 60 ± 5%, storage 0 hours (initial set to 100%)): 100.0%; Relative purity ([1]; pH 7, 25 ± 2° C., RH 60 ± 5%, storage 24 hours): 100.0%; Relative purity ([1]; pH 7, 25 ± 2° C., RH 60 ± 5%, storage 130 hours): 100.0%; Relative purity ([1]; pH 7, 40 ± 2° C., RH 75 ± 5%, storage 0 hours (initial set to 100%)): 100.0%; Relative purity ([1]; pH 7, 40 ± 2° C., RH 75 ± 5%, storage 24 hours): 100.0%; Relative purity ([1]; pH 7, 40 ± 2° C., RH 75 ± 5%, storage 130 hours): 100.0%; Relative purity ([1]; pH 9, 25 ± 2° C., RH 60 ± 5%, storage 0 hours (initial set to 100%)): 100.0%; Relative purity ([1]; pH 9, 25 ± 2° C., RH 60 ± 5%, storage 24 hours): 100.0%; Relative purity ([1]; pH 9, 25 ± 2° C., RH 60 ± 5%, storage 130 hours): 100.0%; Relative purity ([1]; pH 9, 40 ± 2° C., RH 75 ± 5%, storage 0 hours (initial set to 100%)): 100.0%; Relative purity ([1]; pH 9, 40 ± 2° C., RH 75 ± 5%, storage 24 hours): 99.9%; Relative purity ([1]; pH 9, 40 ± 2° C., RH 75 ± 5%, storage 130 hours): 99.8%; Adverse findings related to the pentapeptide [2, 3]: no adverse findings; Deaths [2, 3]: no deaths occurred; No observed adverse effect level (NOEAL) ([2]; female and male, subcutaneous, daily for 4 weeks): greater than or equal to 2,000 mg/kg/day; Day of administration on which the first deceased mouse occurred (MDA-MB-231): 60 days
